Measurements: ChEMBL document CHEMBL4715696, “In vitro synergistic anticancer activity of the combination of T-type calcium channel blocker and chemotherapeutic agent in A549 cells” (Bioorg Med Chem Lett, 2016)

Columns and labels:
[1] = system: A549; test: Induction of cell cycle arrest in human A549 cells assessed as accumulation at S phase at 2.5 uM after 48 hrs by flow cytometric analysis (Rvb =10.4%); format: functional
[2] = system: A549; test: Potentiation of etoposide-induced cell cycle arrest in human A549 cells assessed as accumulation at S phase at 2.5 uM in presence of etoposide after 48 hrs by flow cytometric analysis (Rvb =12.3%); format: functional
[3] = system: A549; test: Induction of cell cycle arrest in human A549 cells assessed as accumulation at G2/M phase at 5 uM after 48 hrs by flow cytometric analysis (reference value: 22.1 to 25.4 %); format: functional
[4] = system: A549; test: Potentiation of etoposide-induced cell cycle arrest in human A549 cells assessed as accumulation at G1 phase at 5 uM in presence of etoposide after 48 hrs by flow cytometric analysis (reference value: 36%); format: functional
[5] = system: A549; test: Decrease in cell cycle associated protein expression in human A549 cells assessed as fold change in cyclin D3 expression at 10 uM after 48 hrs by Western blot analysis (reference value: 0.73 to 1.09); format: functional
[6] = molecular target: T1, CYP1A2 (Homo sapiens, UniProt P05177); test: Inhibition of human CYP1A2 assessed as residual activity at 10 uM measured after 15 mins relative to control; format: ADME; conditions: read-out: Activity
T1 sequence (P05177 whole entry): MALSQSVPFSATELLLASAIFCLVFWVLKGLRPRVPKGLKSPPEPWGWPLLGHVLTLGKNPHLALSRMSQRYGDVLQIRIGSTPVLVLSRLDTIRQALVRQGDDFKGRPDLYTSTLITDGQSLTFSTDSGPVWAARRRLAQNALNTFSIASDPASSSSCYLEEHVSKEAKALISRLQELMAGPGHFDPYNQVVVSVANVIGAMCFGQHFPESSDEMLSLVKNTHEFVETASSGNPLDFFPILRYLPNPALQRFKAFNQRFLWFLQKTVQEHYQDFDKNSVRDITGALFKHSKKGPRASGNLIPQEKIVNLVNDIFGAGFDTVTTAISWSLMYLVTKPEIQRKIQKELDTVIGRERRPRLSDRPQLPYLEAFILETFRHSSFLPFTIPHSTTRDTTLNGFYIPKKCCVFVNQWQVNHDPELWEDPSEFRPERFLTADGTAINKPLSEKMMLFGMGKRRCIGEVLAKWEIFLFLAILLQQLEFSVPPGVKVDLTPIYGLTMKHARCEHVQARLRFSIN

[7] = system: A549; test: Induction of cell cycle arrest in human A549 cells assessed as accumulation at G2/M phase at 10 uM after 48 hrs by flow cytometric analysis (reference value: 22.1%); format: functional
[8] = system: A549; test: Potentiation of etoposide-induced cell cycle arrest in human A549 cells assessed as accumulation at G2/M phase at 2.5 uM in presence of etoposide after 48 hrs by flow cytometric analysis (Rvb =18.9%); format: functional
[9] = system: A549; test: Decrease in cell cycle associated protein expression in human A549 cells assessed as fold change in CDK4 expression at 5 uM after 48 hrs by Western blot analysis (reference value: 0.62); format: functional
[10] = system: A549; test: Decrease in cell cycle associated protein expression in human A549 cells assessed as reduction in CDK2 expression at 10 uM by Western blot analysis; format: functional, cell-based; conditions: time 6-48 hrs, TDE = time-dependent effect
[11] = system: A549; test: Decrease in cell cycle associated protein expression in human A549 cells assessed as fold change in cyclin E expression at 10 uM after 6 hrs by Western blot analysis (reference value: 0.55); format: functional
[12] = system: A549; test: Decrease in cell cycle associated protein expression in human A549 cells assessed as fold change in CDK4 expression at 2.5 uM after 48 hrs by Western blot analysis (reference value: 0.62); format: functional
[13] = Solubility of the compound at pH 7.4; format: physicochemical; conditions: buffer
[14] = system: A549; test: Decrease in cell cycle associated protein expression in human A549 cells assessed as reduction in cyclin D2 expression after 48 hrs by Western blot analysis; format: functional, cell-based; conditions: dose 2.5-10 µM
[15] = system: A549; test: Decrease in cell cycle associated protein expression in human A549 cells assessed as fold change in CDK6 expression at 10 uM after 36 hrs by Western blot analysis (reference value: 0.7); format: functional
[16] = system: A549; test: Potentiation of cisplatin-induced cell cycle arrest in human A549 cells assessed as accumulation at G2/M phase at 2.5 uM in presence of cisplatin after 48 hrs by flow cytometric analysis (Rvb =52.9%); format: functional
[17] = system: A549; test: Decrease in cell cycle associated protein expression in human A549 cells assessed as fold change in CDK6 expression at 10 uM after 48 hrs by Western blot analysis (reference value: 0.7 to 1.05); format: functional
[18] = system: A549; test: Induction of cell cycle arrest in human A549 cells assessed as accumulation at S phase at 10 uM after 48 hrs by flow cytometric analysis (reference value: 10.4%); format: functional
[19] = system: A549; test: Upregulation of p27KIP1 protein expression in human A549 cells at 10 uM by Western blot analysis; format: functional, cell-based; conditions: time 6-48 hrs, TDE = time-dependent effect
[20] = system: A549; test: Decrease in cell cycle associated protein expression in human A549 cells assessed as fold change in cyclin E expression at 10 uM after 36 hrs by Western blot analysis (reference value: 0.55); format: functional
[21] = system: A549; test: Decrease in cell cycle associated protein expression in human A549 cells assessed as fold change in cyclin D2 expression at 10 uM after 12 hrs by Western blot analysis (reference value: 0.77); format: functional
[22] = system: A549; test: Potentiation of etoposide-induced cell cycle arrest in human A549 cells assessed as accumulation at G1 phase at 2.5 uM in presence of etoposide after 48 hrs by flow cytometric analysis (reference value: 36%); format: functional
[23] = system: A549; test: Decrease in cell cycle associated protein expression in human A549 cells assessed as fold change in cyclin D3 expression at 10 uM after 24 hrs by Western blot analysis (reference value: 1.09); format: functional
[24] = Metabolic stability in mouse liver microsomes assessed as parent compound remaining at 1 uM measured for 30 mins; format: ADME, Microsome; conditions: read-out: Stabilty
[25] = system: A549; test: Decrease in cell cycle associated protein expression in human A549 cells assessed as fold change in cyclin D3 expression at 10 uM after 36 hrs by Western blot analysis (reference value: 1.09); format: functional
[26] = system: A549; test: Decrease in cell cycle associated protein expression in human A549 cells assessed as fold change in cyclin D3 expression at 5 uM after 48 hrs by Western blot analysis (reference value: 0.73); format: functional
[27] = Upregulation of p27KIP1 protein expression in human A549 cells assessed as fold change in expression at 5 uM after 48 hrs by Western blot analysis (reference value: 0.48); format: functional
[28] = system: A549; test: Decrease in cell cycle associated protein expression in human A549 cells assessed as fold change in cyclin E expression at 2.5 uM after 48 hrs by Western blot analysis (reference value: 0.37); format: functional
[29] = system: A549; test: Potentiation of cisplatin-induced cell cycle arrest in human A549 cells assessed as accumulation at G2/M phase at 10 uM in presence of cisplatin after 48 hrs by flow cytometric analysis (Rvb =52.9%); format: functional
[30] = Metabolic stability in rat plasma assessed as parent compound remaining at 10 uM measured after 30 mins; format: ADME, cell-free; conditions: read-out: Stabilty

- activity at 0.25 h, 10 µM [6]: 59.2%
- solubility [13]: < 1000 µg/mL
- remaining at 0.5 h, 1 µM [24]: 64.3%
- remaining at 0.5 h, 10 µM [30]: 49.4%
Structure (SMILES): CN(C)C(=O)NCCCN(C)C1=Nc2ccccc2C(CC(=O)NCc2ccc(F)cc2)N1c1ccc(C2CCCCC2)cc1 (stereo not given)
- Activity [1]: 8.8%
- Activity [2]: 10.7%
- Activity [3]: 14.3%
- Activity [4]: 35.6%
- fold change (FC) [5]: 0.55
- Activity [7]: 10.9%
- Activity [8]: 18.5%
- fold change (FC) [9]: 0.64
- Activity [10]: Tde
- fold change (FC) [11]: 0.53
- fold change (FC) [12]: 0.71
- Activity [14]: Dose-dependent effect
- fold change (FC) [15]: 0.38
- Activity [16]: 43%
- fold change (FC) [17]: 0.14
- Activity [18]: 2.4%
- Activity [19]: Tde
- fold change (FC) [20]: 0.18
- fold change (FC) [21]: 0.36
- Activity [22]: 34.3%
- fold change (FC) [23]: 0.51
- fold change (FC) [25]: 0.96
- fold change (FC) [26]: 0.77
- fold change (FC) [27]: 0.76
- fold change (FC) [28]: 0.44
- Activity [29]: 9.4%
